What all share (assay type): cell-based
Experiment [1] deals with REH cells. The experiment can be described thus: Flow cytometry of apoptotic and dead cells (YO-PRO-1 / propidium iodide), REH cells. The conditions noted are these: REH shMer4A, shMer4B vs shControl, 48 hours. An excerpt:
Apoptotic and dead cells were identified by flow cytometric analysis of cells stained with YO-PRO®-1 and propidium iodide: A) representative flow cytometry profiles. The percentage of apoptotic cells is indicated in the lower-right quadrant. The combined percentage of cells in the two upper quadrants indicates the fraction of dead cells.
Apoptotic and dead cells were identified by flow cytometric analysis of cells stained with YO-PRO®-1 and propidium iodide: A) representative flow cytometry profiles. The percentage of apoptotic cells is indicated in the lower-right quadrant. The combined percentage of cells in the two upper quadrants indicates the fraction of dead cells. B) mean values and standard errors derived from 3 independent experiments. Results were tested for significance using two-way repeated measures ANOVA and Bonferroni posttests to compare shControl and Mer knockdown cells at equivalent drug concentrations. Significant differences in apoptotic cell populations are indicated by asterisks (* p<0.01, ** p<0.001). Significant differences in the number of dead cells were also observed († p<0.01, ‡‡ p<0.001). No significant differences between wild type and shControl cells were observed.
For orientation: In flow cytometry, cells or beads pass a laser one at a time.

Experiment [2] deals with REH cells. Nature of the experiment: MTT assay, REH cells (wild type, shControl, Mer knockdown) treated with methotrexate for 48 hours. Conditions: REH shMer4A, shMer4B vs shControl. The source says:
Inhibition of Mer expression results in increased chemosensitivity of REH cells. […] Statistical differences versus shControl are indicated by non-overlapping confidence intervals (95% CI). No significant difference between wild type and shControl was observed.
In general terms: Tetrazolium assays rely on reduction of a dye to a coloured formazan, in cell work by metabolically active cells.

In experiment [3] the test system is 697 Human B-ALL Cell Lines. Nature of the experiment: MTT assay, chemosensitivity of 697 cells (wild type, shControl, Mer knockdown), 48 hours. On the procedure:
Inhibition of Mer expression results in increased chemosensitivity in 697 cells. […] IC50 values were determined by non-linear regression of data from at least three independent experiments performed in triplicate, as shown in Table 1.

SMILES strings stand for the structures.

The term IC50 denotes the midpoint of a concentration-inhibition curve. Low readings indicate higher potency, high ones lower potency.

As to `CN(Cc1cnc2nc(N)nc(N)c2n1)c1ccc(C(=O)N[C@@H](CCC(=O)O)C(=O)O)cc1` [MTX, methotrexate], in the experiment on REH cells [1], the “apoptotic cell death with Mer knockdown” value is listed as “increased apoptotic cell death”. Also, in the experiment with REH cells [2], the “IC50 values in Mer knockdown cells in comparison to shControl cells” value is listed as “significantly lower IC50 values”. Besides, the half-inhibitory concentration (IC50) in experiment [3] (697 Wild Type cells) was determined as 27.5 nM; in experiment [3] (697 shControl cells), 27.8 nM; in experiment [3] (697 shMer1A (Mer knockdown) cells), 12.3 nM; in experiment [3] (697 shMer1B (Mer knockdown) cells) it was 11.8 nM.

These data come from patent US20120230991A1, “METHODS AND COMPOUNDS FOR ENHANCING ANTI-CANCER THERAPY” (priority 2008, published 2012).
